Measured values: ChEMBL document CHEMBL5260810, “Inhibition of bromodomain-containing protein 9 for the prevention of epigenetically-defined drug resistance” (Bioorg Med Chem Lett, 2017)

Key:
Format in all cases: functional, cell-based
EFE-184 = assay: Cytotoxicity against human EFE-184 cells measured after 8 days; settings: EFE-184, 192 h
AM-38 = assay: Cytotoxicity against human AM-38 cells measured after 8 days; settings: AM-38, 192 h
COLO-684 = assay: Cytotoxicity against human COLO-684 cells measured after 8 days; settings: COLO-684, 192 h
ASPC1 = assay: Cytotoxicity against human ASPC1 cells measured after 8 days; settings: ASPC1, 192 h
[1] = Cytotoxicity against human NCE-G 28T cells measured after 8 days; settings: 192 h
[2] = Cytotoxicity against human PK-59 cells measured after 8 days; settings: PK-59, 192 h
HCT-8 = assay: Cytotoxicity against human HCT-8 cells measured after 8 days; settings: HCT-8, 192 h
NB1 = assay: Cytotoxicity against human NB1 cells measured after 8 days; settings: NB1, 192 h
COR-L88 = assay: Cytotoxicity against human COR-L88 cells measured after 8 days; settings: COR-L88, 192 h
[3] = Cytotoxicity against human OVCA 420 cells measured after 8 days; settings: OVCA 420, 192 h
[4] = Cytotoxicity against human COV362 cells measured after 8 days; settings: COV362, 192 h
CAL-27 = assay: Cytotoxicity against human CAL-27 cells measured after 8 days; settings: CAL-27, 192 h
A673 = assay: Cytotoxicity against human A673 cells measured after 8 days; settings: A673, 192 h
[5] = Cytotoxicity against human GOTO.P3 cells measured after 8 days; settings: GOTO.P3, 192 h
[6] = Cytotoxicity against human KPP-1 cells measured after 8 days; settings: KPP-1, 192 h
[7] = Cytotoxicity against human 4498-14745 Mel-BR3 cells measured after 8 days; settings: 4498-14745 Mel-BR3, 192 h
FTC-133 = assay: Cytotoxicity against human FTC-133 cells measured after 8 days; settings: FTC-133, 192 h
[8] = Cytotoxicity against human HEC-59 cells measured after 8 days; settings: HEC-59, 192 h
[9] = Cytotoxicity against human MCAS cells measured after 8 days; settings: 192 h
MC-38 = assay: Cytotoxicity against mouse MC38 ovalbumin cells measured after 8 days; settings: MC-38, 192 h
[10] = Cytotoxicity against human CL-11 cells measured after 8 days; settings: CL-11, 192 h
[11] = Cytotoxicity against human DEOC-1 cells measured after 8 days; settings: DEOC-1, 192 h
KINGS-1 = assay: Cytotoxicity against human KINGS-1 cells measured after 8 days; settings: KINGS-1, 192 h
LN-229 = assay: Cytotoxicity against human LN-229 cells measured after 8 days; settings: LN-229, 192 h
CAPAN-1 = assay: Cytotoxicity against human CAPAN-1 cells measured after 8 days; settings: CAPAN-1, 192 h
OVCAR-5 = assay: Cytotoxicity against human OVCAR-5 cells measured after 8 days; settings: OVCAR-5, 192 h
[12] = Cytotoxicity against mouse AE17 cells measured after 8 days; settings: AE17, 192 h
U2OS = assay: Cytotoxicity against human U2OS cells measured after 8 days; settings: 192 h
FaDu = assay: Cytotoxicity against human FaDu cells measured after 8 days; settings: 192 h
SNU-638 = assay: Cytotoxicity against human SNU-638 cells measured after 8 days; settings: SNU-638, 192 h
A 172 = assay: Cytotoxicity against human A-172 cells measured after 8 days; settings: A 172, 192 h
[13] = Cytotoxicity against human NCE-G 124 cells measured after 8 days; settings: NCE-G 124, 192 h
ML-2 = assay: Cytotoxicity against human ML-2 cells measured after 8 days; settings: ML-2, 192 h
[14] = Cytotoxicity against mouse 4T1-Luc cells measured after 8 days; settings: 192 h
[15] = Cytotoxicity against human PMF-ko14 cells measured after 8 days; settings: PMF-ko14, 192 h
HT55 = assay: Cytotoxicity against human HT55 cells measured after 8 days; settings: HT55, 192 h
COR-L47 = assay: Cytotoxicity against human COR-L47 cells measured after 8 days; settings: COR-L47, 192 h
OCI-AML2 = assay: Cytotoxicity against human OCI-AML2 cells measured after 8 days; settings: OCI-AML2, 192 h
KYSE-270 = assay: Cytotoxicity against human KYSE-270 cells measured after 8 days; settings: KYSE-270, 192 h
[16] = Cytotoxicity against human NCE-G 118 cells measured after 8 days; settings: NCE-G 118, 192 h
[17] = Cytotoxicity against human TC71 cells measured after 8 days; settings: TC-71, 192 h
[18] = Cytotoxicity against mouse Clone M-3 cells measured after 8 days; settings: Clone M-3, 192 h
BOKU = assay: Cytotoxicity against human BOKU cells measured after 8 days; settings: 192 h
Huh-7 = assay: Cytotoxicity against human Huh-7 cells measured after 8 days; settings: Huh-7, 192 h
KYSE-70 cell line = assay: Cytotoxicity against human KYSE-70 cell line measured after 8 days; settings: KYSE-70, 192 h
A498 = assay: Cytotoxicity against human A498 cells measured after 8 days; settings: A498, 192 h
PANC-1 = assay: Cytotoxicity against human PANC-1 cells measured after 8 days; settings: PANC-1, 192 h
[19] = Cytotoxicity against human COLO 818 cells measured after 8 days; settings: COLO 818, 192 h
HEp-2 = assay: Cytotoxicity against human HEp-2 cells measured after 8 days; settings: HEp-2, 192 h
WM-115 = assay: Cytotoxicity against human WM-115 cells measured after 8 days; settings: WM-115, 192 h
AGS = assay: Cytotoxicity against human AGS cells measured after 8 days; settings: 192 h
SU-DHL10 = assay: Cytotoxicity against human SU-DHL-10 cells measured after 8 days; settings: SU-DHL10, 192 h
SU-DHL-6 = assay: Cytotoxicity against human SU-DHL-6 cells measured after 8 days; settings: SU-DHL-6, 192 h
NALM-6 = assay: Cytotoxicity against human NALM-6 cells measured after 8 days; settings: NALM-6, 192 h
[20] = Cytotoxicity against human NCE-G 84 cells measured after 8 days; settings: NCE-G 84, 192 h
[21] = Cytotoxicity against human COV504 cells measured after 8 days; settings: COV504, 192 h
PEO1 = assay: Cytotoxicity against human PEO1 cells measured after 8 days; settings: PEO1, 192 h
769-P = assay: Cytotoxicity against human 769-P cells measured after 8 days; settings: 192 h
[22] = Cytotoxicity against human Li-7 cells measured after 8 days; settings: Li-7, 192 h
[23] = Cytotoxicity against human SNU-484 cells measured after 8 days; settings: SNU-484, 192 h
COLO-829 = assay: Cytotoxicity against human COLO-829 cells measured after 8 days; settings: COLO-829, 192 h

Measured: IC50

C/C=C/Cn1cc(-c2ccc(C(C)(C)O)cc2OC)c2cc[nH]c2c1=O
14.2 µM: OCI-AML2
10.2 µM: NB1
10.9 µM: SU-DHL10
13.9 µM: [17]
20 µM: EFE-184 | AM-38 | COLO-684 | ASPC1 | [1] | [2] | HCT-8 | COR-L88 | [3] | [4] | CAL-27 | A673 | [5] | [6] | [7] | FTC-133 | [8] | [9] | MC-38 | [10] | [11] | KINGS-1 | LN-229 | CAPAN-1 | OVCAR-5 | [12] | U2OS | FaDu | SNU-638 | A 172 | [13] | ML-2 | [14] | [15] | HT55 | COR-L47 | KYSE-270 | [16] | [18] | BOKU | Huh-7 | KYSE-70 cell line | A498 | PANC-1 | [19] | HEp-2 | WM-115 | AGS | NALM-6 | [20] | [21] | PEO1 | 769-P | [22] | [23] | COLO-829
11.1 µM: SU-DHL-6

C/C=C/Cn1cc(-c2ccc(C(=O)N3CCOCC3)cc2)c2cc[nH]c2c1=O
11.1 µM: [17]
16.7 µM: MC-38
18.8 µM: NALM-6
12.1 µM: SU-DHL-6
10.9 µM: [6]
20 µM: EFE-184 | AM-38 | COLO-684 | ASPC1 | [1] | [2] | HCT-8 | NB1 | COR-L88 | [3] | [4] | CAL-27 | A673 | [5] | [7] | FTC-133 | [8] | [9] | [10] | [11] | KINGS-1 | LN-229 | CAPAN-1 | OVCAR-5 | U2OS | FaDu | SNU-638 | A 172 | [13] | ML-2 | [14] | [15] | HT55 | COR-L47 | KYSE-270 | [16] | [18] | BOKU | Huh-7 | KYSE-70 cell line | A498 | PANC-1 | [19] | HEp-2 | WM-115 | AGS | SU-DHL10 | [20] | [21] | PEO1 | 769-P | [22] | [23] | COLO-829
18.1 µM: [12]
8.38 µM: OCI-AML2
